From US8178506B2, “Oligomeric compounds and compositions for use in modulation of small non-coding RNAs” (Regulus Therapeutics Inc., priority 2003, dated 2012)
In the oligonucleotide strings, read from the 5' end, every base follows the letter of its sugar. An asterisk marks phosphorothioate; unmarked linkages are phosphodiester. Other units and linkages are bracketed, terminal groups are in braces. A string of capitals states the bases alone. e = 2'-O-(2-methoxyethyl) (MOE); [5mC] = 5-methylcytosine; d = 2'-deoxy (DNA)

Tests used:
Format in all cases: cell-based, human
[1] = tested on: adipocytes; experiment: Triglyceride accumulation assay in adipocytes; conditions: for TG: Table 20, adipocyte differentiation assay as in Example 13
[2] = tested on: Glut4; experiment: Glut4 mRNA expression in adipocytes (real-time PCR); conditions: for Glut4: Table 20, adipocyte differentiation assay as in Example 13
[3] = tested on: PPARγ; experiment: PPARγ mRNA expression in adipocytes (real-time PCR); conditions: for PPAR gamma: Table 20, adipocyte differentiation assay as in Example 13
[4] = tested on: aP2; experiment: aP2 mRNA expression in adipocytes (real-time PCR); conditions: for aP2 mRNA: Table 75; for AP2: Table 20, adipocyte differentiation assay as in Example 13
[5] = tested on: HSL; experiment: HSL mRNA expression in adipocytes (real-time PCR); conditions: for HSL: Table 20, adipocyte differentiation assay as in Example 13
[6] = Table 18, differentiating adipocytes, control = treatment with ISIS 342673
[7] = differentiating adipocytes transfected with oligomeric compound, Table 75
[8] = differentiating adipocytes transfected with oligomeric compound
[9] = Table 17, differentiating adipocytes, control = treatment with ISIS 342673

Substance | TG (triglyceride accumulation) [1, 6] | GLUT4 mRNA [2, 6] | GLUT4 mRNA [2, 7] | PPAR gamma mRNA [3, 6] | PPAR gamma mRNA [3, 7] | AP2 mRNA [4, 6] | aP2 mRNA [4, 8] | HSL mRNA [5, 6] | HSL mRNA [5, 7] | further results
341803 (antisense CCACACACTTCCTTACATTCCA; all 2'-MOE, all phosphorothioate, methylation of C not given here) [compound 341803] | 85.9 percentage of control | 86.8 percentage of control | 73 percentage of untreated control (UTC) | 71.2 percentage of control | 68 percentage of untreated control (UTC) | 77.3 percentage of control | 85 percentage of untreated control (UTC) | 75.5 percentage of control | 79 percentage of untreated control (UTC) | 
341805 (antisense ACCCTTATCAGTTCTCCGTCCA; all 2'-MOE, all phosphorothioate, methylation of C not given here) [compound 341805] | 78.1 percentage of control | 88.2 percentage of control | 74 percentage of untreated control (UTC) | 80.4 percentage of control | 77 percentage of untreated control (UTC) | 81.9 percentage of control | 90 percentage of untreated control (UTC) | 81.8 percentage of control | 86 percentage of untreated control (UTC) | 
328691 (e[5mC]*e[5mC]*e[5mC]*e[5mC]*eA*dT*d[5mC]*dT*dT*dA*dG*d[5mC]*dA*dT*d[5mC]*eT*eA*eA*eG*eG) [compound 328691] |  |  |  |  |  |  |  |  |  | TG (triglyceride accumulation) [1, 8]: 130 percentage of untreated control (UTC); GLUT4 mRNA [2, 8]: 144 percentage of untreated control (UTC); PPAR gamma mRNA [3, 8]: 105 percentage of untreated control (UTC); AP2 mRNA [4, 8]: 166 percentage of untreated control (UTC); HSL mRNA [5, 8]: 156 percentage of untreated control (UTC)
341807 (antisense CTGGGACTTTGTAGGCCAGTT; all 2'-MOE, all phosphorothioate, methylation of C not given here) [compound 341807] | 114.1 percentage of control | 119.5 percentage of control | 101 percentage of untreated control (UTC) | 86.2 percentage of control | 83 percentage of untreated control (UTC) | 74.8 percentage of control | 82 percentage of untreated control (UTC) | 96.8 percentage of control | 102 percentage of untreated control (UTC) | 
328759 (antisense eG*eA*eG*eG*eG*dA*dT*dT*dG*dT*dA*dT*dG*dA*dA*e[5mC]*eA*eT*e[5mC]*eT) [compound 328759] |  |  |  |  |  |  |  |  |  | TG (triglyceride accumulation) [1, 8]: 87 percentage of untreated control (UTC); GLUT4 mRNA [2, 8]: 66 percentage of untreated control (UTC); PPAR gamma mRNA [3, 8]: 95 percentage of untreated control (UTC); AP2 mRNA [4, 8]: 108 percentage of untreated control (UTC); HSL mRNA [5, 8]: 105 percentage of untreated control (UTC)
328382 (e[5mC]*eA*eG*eA*e[5mC]*dT*d[5mC]*d[5mC]*d[5mC]*dA*dA*d[5mC]*dT*dG*dA*e[5mC]*e[5mC]*eA*eG*eA) [compound 328382] |  |  |  |  |  |  |  |  |  | TG [1]: 0.72; Glut4 [2]: 0.85; PPAR gamma [3]: 0.96; AP2 [4]: 0.89; HSL [5]: 0.75
328685 (e[5mC]*eG*eG*e[5mC]*e[5mC]*dG*dG*dA*dG*d[5mC]*d[5mC]*dA*dT*dA*dG*eA*e[5mC]*eT*e[5mC]*eG; antisense) [compound 328685] |  |  |  |  |  |  |  |  |  | TG (triglyceride accumulation) [1, 8]: 50 percentage of untreated control (UTC); GLUT4 mRNA [2, 8]: 69 percentage of untreated control (UTC); PPAR gamma mRNA [3, 8]: 91 percentage of untreated control (UTC); AP2 mRNA [4, 8]: 73 percentage of untreated control (UTC); HSL mRNA [5, 8]: 100 percentage of untreated control (UTC)
328110 (antisense eG*eA*eT*eA*eA*eA*eG*e[5mC]*e[5mC]*eA*eA*eT*eA*eA*eA*e[5mC]*eT*eG*eT*e[5mC]*eA) [compound 328110] | 97.7 percentage of control | 104.7 percentage of control | 77 percentage of untreated control (UTC) | 91.2 percentage of control | 80 percentage of untreated control (UTC) | 93.3 percentage of control | 89 percentage of untreated control (UTC) | 91.0 percentage of control | 84 percentage of untreated control (UTC) | TG (triglyceride accumulation) [1, 7]: 96 percentage of untreated control (UTC)
338664 (antisense e[5mC]*eA*eG*eA*e[5mC]*eT*e[5mC]*e[5mC]*e[5mC]*eA*eA*e[5mC]*eT*eG*eA*e[5mC]*e[5mC]*eA*eG*eA) [compound 338664] |  |  |  |  |  |  |  |  |  | TG [1]: 1.42; Glut4 [2]: 1.81; PPAR gamma [3]: 0.86; AP2 [4]: 1.01; HSL [5]: 0.76
328362 (eT*eG*eT*eG*eT*dT*dT*dT*d[5mC]*dT*dG*dA*d[5mC]*dT*d[5mC]*eA*eG*eT*e[5mC]*eA) [compound 328362] |  |  |  |  |  |  |  |  |  | TG (triglyceride accumulation) [1, 8]: 73 percentage of untreated control (UTC); GLUT4 mRNA [2, 8]: 80 percentage of untreated control (UTC); PPAR gamma mRNA [3, 8]: 78 percentage of untreated control (UTC); AP2 mRNA [4, 8]: 59 percentage of untreated control (UTC); HSL mRNA [5, 8]: 83 percentage of untreated control (UTC)
328136 (eA*eA*e[5mC]*eT*eA*e[5mC]*eT*eT*e[5mC]*e[5mC]*eA*eG*eA*eG*e[5mC]*eA*eG*eG*eT*eG*eA; anti-miR) [compound 328136] |  |  | 35 percentage of untreated control (UTC) |  | 54 percentage of untreated control (UTC) |  | 57 percentage of untreated control (UTC) |  | 37 percentage of untreated control (UTC) | TG (triglyceride accumulation) [1, 9]: 47.0 percentage of control; TG (triglyceride accumulation) [1, 7]: 26 percentage of untreated control (UTC); GLUT4 mRNA [2, 9]: 66.7 percentage of control; PPAR gamma mRNA [3, 9]: 72.7 percentage of control; AP2 mRNA [4, 9]: 73.0 percentage of control; HSL mRNA [5, 9]: 65.0 percentage of control
328133 (eT*eG*eA*eA*eG*eG*eT*eT*e[5mC]*eG*eG*eA*eG*eA*eT*eA*eG*eG*e[5mC]*eT*eA; anti-miR) [compound 328133] |  |  | 59 percentage of untreated control (UTC) |  | 53 percentage of untreated control (UTC) |  | 66 percentage of untreated control (UTC) |  | 49 percentage of untreated control (UTC) | TG (triglyceride accumulation) [1, 9]: 61.2 percentage of control; TG (triglyceride accumulation) [1, 7]: 43 percentage of untreated control (UTC); GLUT4 mRNA [2, 9]: 91.9 percentage of control; PPAR gamma mRNA [3, 9]: 63.8 percentage of control; AP2 mRNA [4, 9]: 69.5 percentage of control; HSL mRNA [5, 9]: 63.0 percentage of control
341804 (antisense ATCTGCACTGTCAGCACTTT; all 2'-MOE, all phosphorothioate, methylation of C not given here) [compound 341804] | 60.9 percentage of control | 73.6 percentage of control | 62 percentage of untreated control (UTC) | 74.1 percentage of control | 71 percentage of untreated control (UTC) | 70.8 percentage of control | 78 percentage of untreated control (UTC) | 71.6 percentage of control | 75 percentage of untreated control (UTC) | 
327912 (antisense eA*eA*e[5mC]*eT*eA*eT*eA*e[5mC]*eA*eA*eT*e[5mC]*eT*eA*e[5mC]*eT*eA*e[5mC]*e[5mC]*eT*e[5mC]*eA) [compound 327912] | 107.4 percentage of control | 89.0 percentage of control | 79 percentage of untreated control (UTC) | 76.9 percentage of control | 78 percentage of untreated control (UTC) | 90.1 percentage of control | 101 percentage of untreated control (UTC) | 90.6 percentage of control | 95 percentage of untreated control (UTC) | TG (triglyceride accumulation) [1, 7]: 112 percentage of untreated control (UTC)
